Experimental data: PubChem BioAssay (NCI)
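Where inhibition never reached the appropriate level, the endpoint shown equals the highest concentration tested. Otherwise, values were interpolated linearly from a five-concentration, 48-hour dose response in 96-well plates. GI50 = concentration required for 50% inhibition of growth. At the TGI there is no net growth.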

Experiments:
Test in all cases: DTP human tumour cell line panel, 48 h
[1] = tested on: 786-0 renal
[2] = tested on: PC-3 prostate
[3] = tested on: SK-MEL-28 melanoma
[4] = tested on: SNB-75 CNS
[5] = tested on: MDA-MB-231 breast
[6] = tested on: EKVX NSCLC
[7] = tested on: HCC-2998 colon
[8] = tested on: T-47D breast
[9] = tested on: HL-60(TB) leukemia
[10] = tested on: TK-10 renal
[11] = tested on: SNB-19 CNS
[12] = tested on: SK-OV-3 ovarian
[13] = tested on: MDA-MB-435
[14] = tested on: UO-31 renal
[15] = tested on: OVCAR-4 ovarian
[16] = tested on: SF-268 CNS
[17] = tested on: M14 melanoma
[18] = tested on: UACC-257 melanoma
[19] = tested on: SW-620 colon
[20] = tested on: RXF 393 renal
[21] = tested on: SF-539 CNS
[22] = tested on: HOP-92 NSCLC
[23] = tested on: NCI-H460 lung
[24] = tested on: OVCAR-3 ovarian
[25] = tested on: CCRF-CEM leukemia
[26] = tested on: DU-145 prostate
[27] = tested on: LOX IMVI melanoma
[28] = tested on: OVCAR-5 ovarian
[29] = tested on: NCI-H522 lung
[30] = tested on: NCI-H226 lung
[31] = tested on: SF-295 CNS
[32] = tested on: UACC-62 melanoma
[33] = tested on: SK-MEL-2 melanoma
[34] = tested on: IGROV1 ovarian
[35] = tested on: KM12 colon
[36] = tested on: HT29 colon
[37] = tested on: NCI-H23 lung
[38] = tested on: ACHN renal
[39] = tested on: COLO 205 colon
[40] = tested on: K-562 leukemia
[41] = tested on: HCT-15 colon
[42] = tested on: RPMI-8226 leukemia
[43] = tested on: SR leukemia
[44] = tested on: HCT-116 colon
[45] = tested on: BT-549 breast
[46] = tested on: SK-MEL-5 melanoma
[47] = tested on: U251 CNS
[48] = tested on: A549 NSCLC
[49] = tested on: OVCAR-8 ovarian
[50] = tested on: MALME-3M melanoma
[51] = tested on: MOLT-4 leukemia
[52] = tested on: MCF7 breast
[53] = tested on: A498 renal
[54] = tested on: SN12C renal
[55] = tested on: NCI/ADR-RES ovarian
[56] = tested on: CAKI-1 renal
[57] = tested on: HOP-62 NSCLC
[58] = tested on: HS 578T breast

`COC(=O)/C=C1\SC(=Nc2ccc(C(F)(F)F)cc2)N(CCc2c[nH]c3ccccc23)C1=O` gave a GI50 [1] of 1560 nM, a TGI [1] of 2950 nM and a GI50 [2] of 1620 nM. The TGI [2] was 3320 nM, the GI50 [3] was 1870 nM and the TGI [3] was 3550 nM. It also gave a GI50 [4] of 1210 nM, a TGI [4] of 2480 nM and a GI50 [5] of 1500 nM. It also gave a TGI [5] of 2870 nM, a GI50 [6] of 1860 nM and a TGI [6] of 3810 nM. It also gave a GI50 [7] of 1860 nM, a TGI [7] of 3430 nM and a GI50 [8] of 1190 nM. For the same molecule, the TGI [8] was 3170 nM, the GI50 [9] was 1230 nM and the TGI [9] was 3980 nM. For the same molecule, the GI50 [10] was 2060 nM, the TGI [10] was 3940 nM and the GI50 [11] was 1780 nM. For the same molecule, the TGI [11] was 3450 nM, the GI50 [12] was 2050 nM and the TGI [12] was 4060 nM. The GI50 [13] was 1560 nM, the TGI [13] was 3030 nM and the GI50 [14] was 1300 nM. For the same molecule, the TGI [14] was 2560 nM, the GI50 [15] was 1610 nM and the TGI [15] was 3050 nM. It also gave a GI50 [16] of 1780 nM, a TGI [16] of 3670 nM and a GI50 [17] of 1460 nM. The TGI [17] was 2900 nM, the GI50 [18] was 1670 nM and the TGI [18] was 3180 nM. It also gave a GI50 [19] of 1570 nM, a TGI [19] of 3290 nM and a GI50 [20] of 1430 nM. The TGI [20] was 2980 nM, the GI50 [21] was 1620 nM and the TGI [21] was 3020 nM. It also gave a GI50 [22] of 1580 nM, a TGI [22] of 3240 nM and a GI50 [23] of 2040 nM. It also gave a TGI [23] of 4280 nM, a GI50 [24] of 1500 nM and a TGI [24] of 2900 nM. It also gave a GI50 [25] of 1950 nM, a TGI [25] of 7220 nM and a GI50 [26] of 1870 nM. It also gave a TGI [26] of 4210 nM, a GI50 [27] of 1490 nM and a TGI [27] of 2810 nM. For the same molecule, the GI50 [28] was 1790 nM, the TGI [28] was 3380 nM and the GI50 [29] was 1710 nM. The TGI [29] was 3910 nM, the GI50 [30] was 1870 nM and the TGI [30] was 3620 nM. It also gave a GI50 [31] of 1570 nM, a TGI [31] of 2950 nM and a GI50 [32] of 1620 nM. For the same molecule, the TGI [32] was 3470 nM, the GI50 [33] was 1650 nM and the TGI [33] was 3430 nM. For the same molecule, the GI50 [34] was 1820 nM, the TGI [34] was 3590 nM and the GI50 [35] was 1740 nM. For the same molecule, the TGI [35] was 3620 nM, the GI50 [36] was 1860 nM and the TGI [36] was 4560 nM. The GI50 [37] was 1760 nM, the TGI [37] was 3640 nM and the GI50 [38] was 1560 nM. The TGI [38] was 2900 nM, the GI50 [39] was 1880 nM and the TGI [39] was 3650 nM. It also gave a GI50 [40] of 1660 nM, a TGI [40] of 6420 nM and a GI50 [41] of 1380 nM. The TGI [41] was 2950 nM, the GI50 [42] was 1130 nM and the TGI [42] was 4300 nM. It also gave a GI50 [43] of 613 nM, a TGI [43] of 9310 nM and a GI50 [44] of 1210 nM. The TGI [44] was 2470 nM, the GI50 [45] was 1530 nM and the TGI [45] was 3160 nM. It also gave a GI50 [46] of 1690 nM, a TGI [46] of 3060 nM and a GI50 [47] of 1630 nM. For the same molecule, the TGI [47] was 2990 nM, the GI50 [48] was 2010 nM and the TGI [48] was 4800 nM. For the same molecule, the GI50 [49] was 1740 nM, the TGI [49] was 4600 nM and the GI50 [50] was 1790 nM. For the same molecule, the TGI [50] was 3300 nM, the GI50 [51] was 1220 nM and the TGI [51] was 5510 nM. It also gave a GI50 [52] of 1160 nM, a TGI [52] of 4530 nM and a GI50 [53] of 1500 nM. The TGI [53] was 2980 nM, the GI50 [54] was 1690 nM and the TGI [54] was 3450 nM. The GI50 [55] was 1890 nM and the TGI [55] was 4310 nM.

For `O=C1c2[nH]cc(CN[C@@H]3CCCN3)c2C(=O)c2c1c(O)c1ccccc1c2O`, the GI50 [2] was 358 nM, the TGI [2] was 1510 nM and the GI50 [5] was 527 nM. For the same molecule, the TGI [5] was 1840 nM, the GI50 [56] was 927 nM and the TGI [56] was 2870 nM. It also gave a GI50 [10] of 1070 nM, a TGI [10] of 2290 nM and a GI50 [12] of 583 nM. It also gave a TGI [12] of 1780 nM, a GI50 [14] of 261 nM and a TGI [14] of 1520 nM. It also gave a GI50 [17] of 1580 nM, a TGI [17] of 3000 nM and a GI50 [21] of 1360 nM. For the same molecule, the TGI [21] was 2670 nM, the GI50 [22] was 190 nM and the TGI [22] was 1650 nM. It also gave a GI50 [26] of 786 nM, a TGI [26] of 2040 nM and a GI50 [31] of 288 nM. For the same molecule, the TGI [31] was 1250 nM, the GI50 [32] was 1290 nM and the TGI [32] was 2580 nM. For the same molecule, the GI50 [34] was 262 nM, the TGI [34] was 1020 nM and the GI50 [45] was 4670 nM. It also gave a TGI [45] of 38400 nM, a GI50 [50] of 1590 nM and a TGI [50] of 3070 nM. It also gave a GI50 [53] of 544 nM, a TGI [53] of 16300 nM and a GI50 [55] of 3880 nM. For the same molecule, the TGI [55] was 30600 nM.

For `CC(SC(=S)N1CCCC1)C(=O)Nc1nnc(-c2ccc(Cl)cc2)o1` (centres undefined), the TGI [1] was 32900 nM, the TGI [2] was > 100000 nM and the TGI [3] was > 100000 nM. The TGI [4] was > 100000 nM, the TGI [57] was > 100000 nM and the TGI [5] was > 100000 nM. The TGI [7] was > 100000 nM, the TGI [58] was > 100000 nM and the TGI [8] was > 100000 nM. The TGI [9] was 143 nM, the TGI [10] was > 100000 nM and the TGI [11] was > 100000 nM. The TGI [12] was > 100000 nM, the TGI [13] was > 100000 nM and the TGI [14] was 63900 nM. For the same molecule, the TGI [15] was > 100000 nM, the TGI [16] was 96900 nM and the TGI [17] was 37100 nM. For the same molecule, the TGI [18] was > 100000 nM, the TGI [19] was > 100000 nM and the TGI [20] was > 100000 nM. The TGI [21] was > 100000 nM, the TGI [22] was > 100000 nM and the TGI [23] was > 100000 nM. The TGI [24] was > 100000 nM, the TGI [26] was > 100000 nM and the TGI [27] was 54800 nM. For the same molecule, the TGI [28] was > 100000 nM, the TGI [30] was > 100000 nM and the TGI [32] was > 100000 nM. For the same molecule, the TGI [33] was > 100000 nM, the TGI [34] was > 100000 nM and the TGI [36] was 51000 nM. For the same molecule, the TGI [37] was > 100000 nM, the TGI [38] was > 100000 nM and the TGI [39] was > 100000 nM. The TGI [40] was 78700 nM, the TGI [41] was > 100000 nM and the TGI [42] was 44800 nM. The TGI [44] was 50000 nM, the TGI [45] was > 100000 nM and the TGI [46] was 82800 nM. The TGI [47] was > 100000 nM, the TGI [48] was > 100000 nM and the TGI [49] was > 100000 nM. For the same molecule, the TGI [50] was 84200 nM, the TGI [52] was > 100000 nM and the TGI [53] was > 100000 nM. The TGI [54] was 59900 nM and the TGI [55] was > 100000 nM.
